Results from paper PMC5218480 (PLoS ONE, 2017).

Tested on: MV-4-11 cells
Experiment: Gene expression microarray analysis (Affymetrix PrimeView) and GSEA
Format: cell-based, human
Design: RFU PODN (11730768_x_at) / Fold change /veh PODN (11730768_x_at) / RFU LINC00158 (11744669_a_at) / Fold change /veh LINC00158 (11744669_a_at) / RFU DUSP10 (11751237_a_at) / Fold change /veh DUSP10 (11751237_a_at) / RFU ID3 (11757404_x_at) / Fold change /veh ID3 (11757404_x_at) / RFU PLEKHG5 (11737974_s_at) / Fold change /veh PLEKHG5 (11737974_s_at) / RFU LRRC4B (11730491_at) / Fold change /veh LRRC4B (11730491_at) / RFU GIMAP4 (11747438_a_at) / Fold change /veh GIMAP4 (11747438_a_at) / RFU KRT8 (11758183_x_at) / Fold change /veh KRT8 (11758183_x_at) / RFU CNN1 (11734310_a_at) / Fold change /veh CNN1 (11734310_a_at) / RFU VPS37D (11726825_at) / Fold change /veh VPS37D (11726825_at) / RFU C10orf10 (11716522_x_at) / Fold change /veh C10orf10 (11716522_x_at) / RFU KIR2DL2 /// KIR2DL4 /// KIR2DL5A /// KIR2DL5B /// KIR2DS1 /// KIR2DS2 /// KIR2DS3 /// KIR2DS4 /// KIR3DL3 /// KIR3DL3 /// KIR3DS1 (11738374_at) / Fold change /veh KIR2DL2 /// KIR2DL4 /// KIR2DL5A /// KIR2DL5B /// KIR2DS1 /// KIR2DS2 /// KIR2DS3 /// KIR2DS4 /// KIR3DL3 /// KIR3DL3 /// KIR3DS1 (11738374_at) / RFU C1QL1 (11718748_at) / Fold change /veh C1QL1 (11718748_at) / RFU TMPRSS4 (11747572_a_at) / Fold change /veh TMPRSS4 (11747572_a_at) / RFU HAMP (11756126_x_at) / Fold change /veh HAMP (11756126_x_at) / RFU RNFT2 (11725882_a_at) / Fold change /veh RNFT2 (11725882_a_at) / RFU NR4A2 (11747474_a_at) / Fold change /veh NR4A2 (11747474_a_at) / RFU ABCC12 (11746883_a_at) / Fold change /veh ABCC12 (11746883_a_at) / RFU TMEM136 (11760407_x_at) / Fold change /veh TMEM136 (11760407_x_at) / RFU CLDN22 /// WWC2 (11732394_at) / Fold change /veh CLDN22 /// WWC2 (11732394_at) / RFU HLA-DPB1 (11760878_x_at) / Fold change /veh HLA-DPB1 (11760878_x_at) / RFU SPINT1 (11716480_a_at) / Fold change /veh SPINT1 (11716480_a_at) / RFU GAP43 (11754022_s_at) / Fold change /veh GAP43 (11754022_s_at) / RFU A4GNT (11735810_at) / Fold change /veh A4GNT (11735810_at) / RFU PRB3 (11715151_x_at) / Fold change /veh PRB3 (11715151_x_at) / RFU TUBB4B (11761932_at) / Fold change /veh TUBB4B (11761932_at) / RFU CAPN14 (11732068_a_at) / Fold change /veh CAPN14 (11732068_a_at) / RFU TMCC2 (11721928_a_at) / Fold change /veh TMCC2 (11721928_a_at) / RFU IRGQ (11745062_a_at) / Fold change /veh IRGQ (11745062_a_at) / RFU FAM174B (11720279_a_at) / Fold change /veh FAM174B (11720279_a_at) / RFU TMPRSS4 (11748680_a_at) / Fold change /veh TMPRSS4 (11748680_a_at) / RFU FAM212B (11763350_a_at) / Fold change /veh FAM212B (11763350_a_at) / RFU PLEKHG5 (11743358_a_at) / Fold change /veh PLEKHG5 (11743358_a_at) / RFU ZSCAN30 (11745921_a_at) / Fold change /veh ZSCAN30 (11745921_a_at) / RFU CMKLR1 (11741424_a_at) / Fold change /veh CMKLR1 (11741424_a_at) / RFU LOC101060620 /// MAPK8IP1 (11723275_at) / Fold change /veh LOC101060620 /// MAPK8IP1 (11723275_at) / RFU SPTSSB (11747773_x_at) / Fold change /veh SPTSSB (11747773_x_at) / RFU PRSS12 (11739890_at) / Fold change /veh PRSS12 (11739890_at) / RFU BIN1 (11741810_x_at) / Fold change /veh BIN1 (11741810_x_at) / RFU WNT11 (11732464_a_at) / Fold change /veh WNT11 (11732464_a_at) / RFU C10orf10 (11716521_a_at) / Fold change /veh C10orf10 (11716521_a_at) / RFU C5orf56 (11738089_at) / Fold change /veh C5orf56 (11738089_at) / RFU CYB561 (11721691_x_at) / Fold change /veh CYB561 (11721691_x_at) / RFU ANKRD19P (11752326_a_at) / Fold change /veh ANKRD19P (11752326_a_at) / RFU OR2T12 /// OR2T33 /// OR2T8 (11738714_s_at) / Fold change /veh OR2T12 /// OR2T33 /// OR2T8 (11738714_s_at) / RFU VCAN (11748164_a_at) / Fold change /veh VCAN (11748164_a_at) / RFU JSRP1 (11732532_at) / Fold change /veh JSRP1 (11732532_at) / RFU KRTAP10-11 (11738290_x_at) / Fold change /veh KRTAP10-11 (11738290_x_at) / RFU MYO3A (11730013_a_at) / Fold change /veh MYO3A (11730013_a_at) / RFU EBF3 (11725865_a_at) / Fold change /veh EBF3 (11725865_a_at) / RFU CAMK2N1 (11719241_x_at) / Fold change /veh CAMK2N1 (11719241_x_at) / RFU C5orf56 (11738088_a_at) / Fold change /veh C5orf56 (11738088_a_at) / RFU OLFML3 (11715873_a_at) / Fold change /veh OLFML3 (11715873_a_at) / RFU LOC100653217 /// NTM (11731650_a_at) / Fold change /veh LOC100653217 /// NTM (11731650_a_at) / RFU MAPK11 (11762145_a_at) / Fold change /veh MAPK11 (11762145_a_at) / RFU FIZ1 (11724087_x_at) / Fold change /veh FIZ1 (11724087_x_at) / RFU OASL (11726364_x_at) / Fold change /veh OASL (11726364_x_at) / RFU SOX15 (11748057_x_at) / Fold change /veh SOX15 (11748057_x_at) / RFU CD79A (11719716_a_at) / Fold change /veh CD79A (11719716_a_at) / RFU HIST1H1D (11736915_at) / Fold change /veh HIST1H1D (11736915_at) / RFU CASKIN2 (11723855_a_at) / Fold change /veh CASKIN2 (11723855_a_at) / RFU LOC730098 (11760151_x_at) / Fold change /veh LOC730098 (11760151_x_at) / RFU OR4N2 (11742367_at) / Fold change /veh OR4N2 (11742367_at) / RFU PRRT2 (11749266_a_at) / Fold change /veh PRRT2 (11749266_a_at) / RFU SNX32 (11753110_a_at) / Fold change /veh SNX32 (11753110_a_at) / RFU CDHR5 (11726645_a_at) / Fold change /veh CDHR5 (11726645_a_at) / RFU RCAN1 (11760418_a_at) / Fold change /veh RCAN1 (11760418_a_at) / RFU FAM167A (11723789_a_at) / Fold change /veh FAM167A (11723789_a_at) / RFU FAM26E (11764081_at) / Fold change /veh FAM26E (11764081_at) / RFU ISYNA1 (11749810_s_at) / Fold change /veh ISYNA1 (11749810_s_at) / RFU ACY1 (11761880_at) / Fold change /veh ACY1 (11761880_at) / RFU 11764098_at / Fold change /veh 11764098_at / RFU SAMD14 (11745864_x_at) / Fold change /veh SAMD14 (11745864_x_at) / RFU NPB (11741838_a_at) / Fold change /veh NPB (11741838_a_at) / RFU TMPRSS6 (11731388_a_at) / Fold change /veh TMPRSS6 (11731388_a_at) / RFU KRTAP10-2 (11738614_at) / Fold change /veh KRTAP10-2 (11738614_at) / RFU ARHGAP8 /// PRR5-ARHGAP8 (11727945_x_at) / Fold change /veh ARHGAP8 /// PRR5-ARHGAP8 (11727945_x_at) / RFU KRTAP5-7 /// NADSYN1 (11734609_at) / Fold change /veh KRTAP5-7 /// NADSYN1 (11734609_at) / RFU RASL12 (11751679_a_at) / Fold change /veh RASL12 (11751679_a_at) / RFU CDKN2B (11736163_a_at) / Fold change /veh CDKN2B (11736163_a_at) / RFU PRF1 (11729649_at) / Fold change /veh PRF1 (11729649_at) / RFU, ZNF638 /// ZNF638-IT1 / Fold change vs veh, ZNF638 /// ZNF638-IT1 / RFU, PANK3 / Fold change vs veh, PANK3 / RFU, SH3YL1 / Fold change vs veh, SH3YL1 / RFU, ZEB2 / Fold change vs veh, ZEB2 / RFU, NRIP1 / Fold change vs veh, NRIP1 / RFU, PTTG1IP / Fold change vs veh, PTTG1IP / RFU, CAPN2 / Fold change vs veh, CAPN2 / RFU, MED14 / Fold change vs veh, MED14 / RFU, SNORA58 / Fold change vs veh, SNORA58 / RFU, C1orf63 / Fold change vs veh, C1orf63 / RFU, LRRFIP1 / Fold change vs veh, LRRFIP1 / RFU, NDUFAF7 / Fold change vs veh, NDUFAF7 / RFU, SLC12A2 / Fold change vs veh, SLC12A2 / RFU, IBTK / Fold change vs veh, IBTK / RFU, ESF1 / Fold change vs veh, ESF1 / Fold change vs veh, TMEM50B / RFU, TAOK1 / Fold change vs veh, TAOK1 / RFU, ACBD3 / Fold change vs veh, ACBD3 / RFU, TMA16 / Fold change vs veh, TMA16 / RFU, RWDD3 / Fold change vs veh, RWDD3 / RFU, BCAT1 / Fold change vs veh, BCAT1 / RFU, EDEM3 / Fold change vs veh, EDEM3 / RFU, TMEM33 / Fold change vs veh, TMEM33 / RFU, WDR75 / Fold change vs veh, WDR75 / RFU, AHCTF1 / Fold change vs veh, AHCTF1 / RFU, TFRC / Fold change vs veh, TFRC / RFU, ZDHHC17 / Fold change vs veh, ZDHHC17 / RFU, NOM1 / Fold change vs veh, NOM1 / RFU, ARL8B / Fold change vs veh, ARL8B / RFU, ZBTB11 / Fold change vs veh, ZBTB11 / RFU, TAMM41 / Fold change vs veh, TAMM41 / RFU, KIAA1704 /// LOC100996395 / Fold change vs veh, KIAA1704 /// LOC100996395 / RFU, ING1 / Fold change vs veh, ING1 / RFU, TRMT61B / Fold change vs veh, TRMT61B / RFU, FUBP3 / Fold change vs veh, FUBP3 / RFU, TP53 / Fold change vs veh, TP53 / RFU, TNKS2 / Fold change vs veh, TNKS2 / RFU, ZFP14 / Fold change vs veh, ZFP14 / RFU, ACTR2 / Fold change vs veh, ACTR2 / RFU, PPP3R1 / Fold change vs veh, PPP3R1 / RFU, PIK3R1 / Fold change vs veh, PIK3R1 / RFU, HNRNPA1 / Fold change vs veh, HNRNPA1 / RFU, RNF170 / Fold change vs veh, RNF170 / RFU, ZNF28 / Fold change vs veh, ZNF28 / RFU, RNGTT / Fold change vs veh, RNGTT / RFU, OGT / Fold change vs veh, OGT / RFU, BRD1 / Fold change vs veh, BRD1 / RFU, MARS / Fold change vs veh, MARS / RFU, ZNF655 / Fold change vs veh, ZNF655 / RFU, FAHD1 / Fold change vs veh, FAHD1 / RFU, BDP1 / Fold change vs veh, BDP1 / RFU, LRRCC1 / Fold change vs veh, LRRCC1 / RFU, ARID1A / Fold change vs veh, ARID1A / RFU, ZNF146 / Fold change vs veh, ZNF146 / RFU, ZNF330 / Fold change vs veh, ZNF330 / RFU, GPN3 / Fold change vs veh, GPN3 / RFU, C9orf123 / Fold change vs veh, C9orf123 / RFU, N4BP2L2 / Fold change vs veh, N4BP2L2 / RFU, ARFIP1 / Fold change vs veh, ARFIP1 / RFU, FAM179B / Fold change vs veh, FAM179B / RFU, BCL10 / Fold change vs veh, BCL10 / RFU, UHRF1BP1L / Fold change vs veh, UHRF1BP1L / RFU, BET1 / Fold change vs veh, BET1 / RFU, CNOT2 / Fold change vs veh, CNOT2 / RFU, ZNF268 / Fold change vs veh, ZNF268 / Fold change vs veh, ZNF507 / RFU, DGCR2 / Fold change vs veh, DGCR2 / RFU, WDSUB1 / Fold change vs veh, WDSUB1 / Fold change vs veh, HSP90B1 /// MIR3652 / RFU, ADSS / Fold change vs veh, ADSS / RFU, GK / Fold change vs veh, GK / RFU, ZNF148 / Fold change vs veh, ZNF148 / RFU, TAF9 / Fold change vs veh, TAF9 / RFU, SLC1A5 / Fold change vs veh, SLC1A5 / RFU, SLMO2 / Fold change vs veh, SLMO2 / RFU, ABCC4 / Fold change vs veh, ABCC4 / RFU, LOC101060439 /// RAP1B / Fold change vs veh, LOC101060439 /// RAP1B / RFU, RFX7 / Fold change vs veh, RFX7 / RFU, GTPBP10 / Fold change vs veh, GTPBP10 / RFU, CNEP1R1 / Fold change vs veh, CNEP1R1 / RFU, BIVM-ERCC5 /// ERCC5 / Fold change vs veh, BIVM-ERCC5 /// ERCC5 / RFU, ILF3 / Fold change vs veh, ILF3 / RFU 11762660_at / Fold change /veh 11762660_at / RFU VCAN (11757783_s_at) / Fold change /veh VCAN (11757783_s_at) / RFU DDX43 (11728927_at) / Fold change /veh DDX43 (11728927_at) / RFU KRT8 (11758188_x_at) / Fold change /veh KRT8 (11758188_x_at) / RFU NKD1 (11759106_at) / Fold change /veh NKD1 (11759106_at) / RFU SRD5A1 (11742802_a_at) / Fold change /veh SRD5A1 (11742802_a_at) / RFU TPSAB1 /// TPSB2 (11721975_s_at) / Fold change /veh TPSAB1 /// TPSB2 (11721975_s_at) / RFU GSTM3 (11746129_a_at) / Fold change /veh GSTM3 (11746129_a_at) / RFU IL23R (11737362_x_at) / Fold change /veh IL23R (11737362_x_at) / RFU TMEM51 (11727254_a_at) / Fold change /veh TMEM51 (11727254_a_at) / RFU PIWIL2 (11732686_x_at) / Fold change /veh PIWIL2 (11732686_x_at) / RFU ORM1 (11744905_x_at) / Fold change /veh ORM1 (11744905_x_at) / RFU CCDC152 (11743942_at) / Fold change /veh CCDC152 (11743942_at) / RFU ECM1 (11717891_a_at) / Fold change /veh ECM1 (11717891_a_at) / RFU IL23R (11748794_a_at) / Fold change /veh IL23R (11748794_a_at) / RFU TNFAIP8L3 (11732012_x_at) / Fold change /veh TNFAIP8L3 (11732012_x_at) / RFU MBOAT4 (11741988_at) / Fold change /veh MBOAT4 (11741988_at) / RFU 11764193_at / Fold change /veh 11764193_at / RFU TMEM53 (11763286_at) / Fold change /veh TMEM53 (11763286_at) / RFU MAGEB2 (11727129_at) / Fold change /veh MAGEB2 (11727129_at) / RFU TMEM200A (11744735_a_at) / Fold change /veh TMEM200A (11744735_a_at) / RFU CCDC152 (11751479_a_at) / Fold change /veh CCDC152 (11751479_a_at) / RFU FAM211A (11726209_a_at) / Fold change /veh FAM211A (11726209_a_at) / RFU RGS16 (11746705_a_at) / Fold change /veh RGS16 (11746705_a_at) / RFU VCAN (11755009_s_at) / Fold change /veh VCAN (11755009_s_at) / RFU RHOB (11743442_s_at) / Fold change /veh RHOB (11743442_s_at) / RFU RGS16 (11720943_a_at) / Fold change /veh RGS16 (11720943_a_at) / RFU RGS16 (11720944_at) / Fold change /veh RGS16 (11720944_at) / RFU, VPS4B / Fold change vs veh, VPS4B / RFU, CREB1 / Fold change vs veh, CREB1 / RFU, DNAJC13 / Fold change vs veh, DNAJC13 / RFU, GNAQ / Fold change vs veh, GNAQ / RFU, CDK5R1 / Fold change vs veh, CDK5R1 / RFU, ZRANB3 / Fold change vs veh, ZRANB3 / RFU, CUL4A / Fold change vs veh, CUL4A / RFU, CCNY / Fold change vs veh, CCNY / RFU, UFL1 / Fold change vs veh, UFL1 / RFU, COG3 / Fold change vs veh, COG3 / RFU, DIAPH2 / Fold change vs veh, DIAPH2 / RFU, SKA2 / Fold change vs veh, SKA2 / RFU, AFF3 / Fold change vs veh, AFF3 / RFU, LMF1 / Fold change vs veh, LMF1 / RFU, IPO11 / Fold change vs veh, IPO11 / RFU, DFFB / Fold change vs veh, DFFB / RFU, FOXP1 / Fold change vs veh, FOXP1 / RFU, CARD8 / Fold change vs veh, CARD8 / RFU, STRN3 / Fold change vs veh, STRN3 / RFU, ADK / Fold change vs veh, ADK / RFU, RASSF2 / Fold change vs veh, RASSF2 / RFU, WIPF1 / Fold change vs veh, WIPF1 / RFU, LARP1B / Fold change vs veh, LARP1B / RFU, RASA1 / Fold change vs veh, RASA1 / RFU, RB1 / Fold change vs veh, RB1 / RFU, PPFIA1 / Fold change vs veh, PPFIA1 / RFU, MAT2A / Fold change vs veh, MAT2A / RFU, CCT5 / Fold change vs veh, CCT5 / RFU, WDR92 / Fold change vs veh, WDR92 / RFU, CUX1 / Fold change vs veh, CUX1 / RFU, TTC7A / Fold change vs veh, TTC7A / RFU, TMEM135 / Fold change vs veh, TMEM135 / RFU, DEPTOR / Fold change vs veh, DEPTOR / RFU, CPM / Fold change vs veh, CPM / RFU, DNAJB6 / Fold change vs veh, DNAJB6 / RFU, CACNA2D3 / Fold change vs veh, CACNA2D3 / RFU, DTX4 / Fold change vs veh, DTX4 / RFU, TFCP2 / Fold change vs veh, TFCP2 / RFU, GMCL1 /// GMCL1P1 / Fold change vs veh, GMCL1 /// GMCL1P1 / RFU, AEBP2 / Fold change vs veh, AEBP2 / RFU, SNHG1 /// SNORD22 /// SNORD25 /// SNORD26 /// SNORD27 /// SNORD28 /// SNORD29 /// SNORD31 / Fold change vs veh, SNHG1 /// SNORD22 /// SNORD25 /// SNORD26 /// SNORD27 /// SNORD28 /// SNORD29 /// SNORD31 / Fold change (Aza/veh), C12orf56 (ProbeSet 11735607_a_at) / Fold change (ACY-1035/veh), C12orf56 (ProbeSet 11735607_a_at) / Fold change (Aza/veh), FGFR1OP (ProbeSet 11751329_s_at) / Fold change (ACY-1035/veh), FGFR1OP (ProbeSet 11751329_s_at) / Fold change (Aza/veh), VPS36 (ProbeSet 11739960_a_at) / Fold change (ACY-1035/veh), VPS36 (ProbeSet 11739960_a_at) / RFU SYPL1 (11715823_x_at) / Fold change /veh SYPL1 (11715823_x_at) / RFU IGFBP7 (11715501_s_at) / Fold change /veh IGFBP7 (11715501_s_at) / RFU REEP3 (11722064_at) / Fold change /veh REEP3 (11722064_at) / RFU IGLL1 (11728026_x_at) / Fold change /veh IGLL1 (11728026_x_at): dose or concentration left out as unconfirmed
Details: ProbeSet 11747937_a_at; LIST D

## Nc1ccc(-c2cccs2)cc1NC(=O)c1ccc2c(c1)cc(C1CC1)n2CCN1CCOCC1 [ACY-1035]
  RFU, DNAJB6: 348.58 RFU
